Inhibition data for 28 compounds are collected here from patent US20050148631A1, “Amino heterocyclyl inhibitors of 11-beta-hydroxy steroid dehydrogenase type 1” (AGOURON PHARMACEUTICALS, INC., priority 2003, published 2005).

Read-outs that look alike come from different tables or passages of the source.

This assay addresses 11β-hsd-1 enzyme (Homo sapiens, UniProt P28845). The assay can be described thus: 11β-hsd-1 enzyme assay, percentage of inhibition (3H-cortisone to cortisol, radio-HPLC). Format: biochemical. Particulars: read-out: % inh @ 0.1 uM.

11β-hsd-1 enzyme, sequence (P28845 whole entry, species assumed): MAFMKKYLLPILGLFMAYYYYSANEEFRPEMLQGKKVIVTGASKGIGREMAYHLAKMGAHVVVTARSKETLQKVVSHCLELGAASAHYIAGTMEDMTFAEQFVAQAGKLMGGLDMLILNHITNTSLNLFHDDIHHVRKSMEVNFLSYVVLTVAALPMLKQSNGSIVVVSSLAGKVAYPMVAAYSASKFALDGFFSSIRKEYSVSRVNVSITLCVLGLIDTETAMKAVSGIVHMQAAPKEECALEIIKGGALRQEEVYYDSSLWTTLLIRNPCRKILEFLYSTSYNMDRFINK

For `COc1ccc(-c2ccc(S(=O)(=O)Nc3cccc(C)n3)cc2)c(OC)c1` [Example 135], for the setting “0.1 uM”, the inhibition at 0.1 µM was 49.1%.

Turning to `Cc1ccc(C)c(-c2ccc(S(=O)(=O)Nc3cccc(C)n3)cc2C)c1` [Example 240], under “compound at 0.1 uM”, the inhibition at 0.1 µM came out at 89%.

Take `Cc1ccc(NS(=O)(=O)c2ccc(-c3ccccc3)cc2)nc1` [Example 66]: the inhibition at 0.1 µM (0.1 uM) came to 33.8%.

Regarding `Cc1cccc(NS(=O)(=O)c2ccc(-c3ccc(S(C)(=O)=O)cc3)cc2)n1` [Example 158], the inhibition at 0.1 µM (0.1 uM) amounted to 71%.

As for `Cc1cccc(NS(=O)(=O)c2ccc(C#N)cc2)n1` [Example 90], the inhibition at 0.1 µM (0.1 uM) stood at 24.8%.

With `Cc1cccc(N(CCN(C)C)S(=O)(=O)c2ccc(-c3ccc(C#N)cc3)cc2)n1` [Example 265, 4′-Cyano-biphenyl-4-sulfonic acid (2-dimethylamino-ethyl)-(6-methyl-pyridin-2-yl)-amide], where the note is “compound at 0.1 uM”, the inhibition at 0.1 µM was found to be 11.4%.

As for `Cc1c(Cl)cccc1S(=O)(=O)Nc1cccc(CC(=O)N2CCCC2)n1` [Example 17], where the note is “0.1 uM”, the inhibition at 0.1 µM came to 11.4%.

As for `N#Cc1ccc(-c2ccc(S(=O)(=O)Nc3cc(O)c4ccccc4n3)cc2)cc1` [Example 105], for the setting “0.1 uM”, the inhibition at 0.1 µM turned out to be 16.9%.

Turning to `Cc1cccc(NS(=O)(=O)N2CCC(c3ccccc3)(c3ccccc3)CC2)n1` [Example 307], under “compound at 0.1 uM”, the inhibition at 0.1 µM came to 29.5%.

Consider `Cc1cccc(NS(=O)(=O)c2ccc(-c3ccc(O)cc3)cc2C)n1` [Example 199], for which, for the setting “compound at 0.1 uM”, the inhibition at 0.1 µM stood at 55%.

`CSc1ccccc1-c1ccc(S(=O)(=O)Nc2cccc(C)n2)cc1` [Example 139]: the inhibition at 0.1 µM (0.1 uM) stood at 37.9%.

Turning to `Cc1cccc(NS(=O)(=O)c2ccc(-c3ccccc3F)c(C)c2)n1` [Example 230], under “compound at 0.1 uM”, the inhibition at 0.1 µM is 23%.

In the case of `Cc1cccc(NS(=O)(=O)c2ccc(-c3ccc(Cl)c(Cl)c3)cc2)n1` [Example 140], the inhibition at 0.1 µM (0.1 uM) worked out at 91%.

As to `Cc1cccc(NS(=O)(=O)c2ccc(-c3ccc(C(N)=O)cc3)cc2)n1` [Example 262, 4′-(6-Methyl-pyridin-2-ylsulfamoyl)-biphenyl-4-carboxylic acid amide], the inhibition at 0.1 µM (compound at 0.1 uM) was 45.7%.

As to `CCN(CC)C(=O)Cc1cccc(NS(=O)(=O)c2ccc(F)cc2)n1` [Example 24], the inhibition at 0.1 µM (0.1 uM) came to 3.7%.

With `Cc1cccc(NS(=O)(=O)c2ccc(-c3cc(F)c(F)c(F)c3)cc2)n1` [Example 152], under “0.1 uM”, the inhibition at 0.1 µM came out at 72.7%.

As to `Cc1cccc(NS(=O)(=O)c2ccc(-c3cc(Cl)cc(Cl)c3)cc2)n1` [Example 131], for the setting “0.1 uM”, the inhibition at 0.1 µM was 100%.

With `Cc1cccc(NS(=O)(=O)N2CCC(c3ccncc3)C2)n1` (stereo not shown) [Example 297, 3-Pyridin-4-yl-pyrrolidine-1-sulfonic acid (6-methyl-pyridin-2-yl)-amide], for the setting “compound at 0.1 uM”, the inhibition at 0.1 µM was 3.4%.

Consider `Cc1cccc(-c2ccc(S(=O)(=O)Nc3cccc(C)n3)cc2C)c1` [Example 227], for which the inhibition at 0.1 µM (compound at 0.1 uM) was 40%.

`CSc1ccc(-c2ccc(S(=O)(=O)Nc3cccc(C)n3)cc2)cc1` [Example 129]: the inhibition at 0.1 µM (0.1 uM) is 86.3%.

With `CCN(CC)C(=O)Cc1cccc(NS(=O)(=O)c2ccc(C)cc2)n1` [Example 23], the inhibition at 0.1 µM (0.1 uM) was 4.9%.

Turning to `Cc1cccc(NS(=O)(=O)c2ccc(-c3cccc(C#N)c3)c(C)c2)n1` [Example 220], where the note is “compound at 0.1 uM”, the inhibition at 0.1 µM was found to be 67%.

Regarding `CCN(CC)C(=O)Cc1cc(C)cc(NS(=O)(=O)c2cccc(Cl)c2C)n1` [Example 15], the inhibition at 0.1 µM (0.1 uM) turned out to be 23.6%.

In the case of `Cc1cccc(NS(=O)(=O)c2ccc(-n3cccn3)cc2)n1` [Example 92], where the note is “0.1 uM”, the inhibition at 0.1 µM was 29.8%.

On to `Cc1cc(C)nc(NS(=O)(=O)c2cccc(Cl)c2C)c1` [Example 44], for which the inhibition at 0.1 µM (0.1 uM) amounted to 16%.

For `Cc1cccc(NS(=O)(=O)Cc2cc(Cl)cc(Cl)c2)n1` [Example 75], the inhibition at 0.1 µM (0.1 uM) amounted to 19.2%.

In the case of `Cc1c(Cl)cccc1S(=O)(=O)Nc1cccc(CC(=O)N(C)C)n1` [Example 31], under “0.1 uM”, the inhibition at 0.1 µM is 11.3%.

On to `CCN(CC)C(=O)Cc1cccc(NS(=O)(=O)c2ccc(C(C)C)cc2)n1` [Example 25], for which the inhibition at 0.1 µM (0.1 uM) is 42.8%.
